Test results reported in ChEMBL document CHEMBL1201862, “PubChem BioAssay data set” (2004).
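A five-concentration, 48-hour dose response in 96-well plates underlies each endpoint, interpolated linearly between surrounding concentrations. GI50 = concentration required for 50% inhibition of growth.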 Calls of active or inactive are those of the source. Rule as the data show it: active = GI50 up to about 1.1 µM and inactive = higher. Residues, ends and D or L forms follow the SMILES beside them. Groups on a side chain read outwards from the residue. *: point of attachment. Cbz = O=C(OCc1ccccc1)*; Boc = CC(C)(C)OC(=O)*

Assays:
Assay in all cases: NCI tumour cell line growth inhibition, 48 h
T47D = tested on: T47D
DMS-114 = tested on: DMS-114
HOP-18 = tested on: HOP-18
DMS-273 = tested on: DMS-273
KM-20L2 = tested on: KM-20L2
SNB-78 = tested on: SNB-78
LXFL 529 = tested on: LXFL 529
XF498 = tested on: XF498

CC(C)(C)OC(=O)NC(CCCCNC(=O)CNC(=O)OCc1ccccc1)C(=O)NC(CCCCNC(=O)CNC(=O)OCc1ccccc1)C(=O)NC(CCCCNC(=O)CNC(=O)OCc1ccccc1)C(=O)NC(CCCCNC(=O)CNC(=O)OCc1ccccc1)C(=O)O (stereo not drawn) (Boc-K([Gly-Cbz])K([Gly-Cbz])K([Gly-Cbz])K([Gly-Cbz])-OH; configuration not given here)
GI50 (T47D): > 100 µM (inactive)

CN(/C(=N\O)c1ccccc1)c1ccccc1
GI50 (DMS-114): 25.6 µM (inactive) | GI50 (HOP-18): < 0.01 µM (active) | GI50 (DMS-273): 24.3 µM (inactive) | GI50 (KM-20L2): 17.3 µM (inactive) | GI50 (SNB-78): 28.4 µM (inactive) | GI50 (LXFL 529): 34.8 µM (inactive)

CCCCCCCC/C=C\CCCCCCC(F)C(=O)O (stereo not drawn)
GI50 (T47D): > 12.5 µM (inactive)

COC(=O)N/N=C(\C)C(CN1CCOCC1)C(c1ccccc1)c1cc2ccccc2oc1=O (stereo not drawn)
GI50 (T47D): > 100 µM (inactive)

C[N+](C)(C)CCN[N+]1(C)CCCc2ccccc21 (stereo not drawn)
GI50 (T47D): 36.5 µM (inactive)

C/C(=N\NS(=O)(=O)c1ccccc1)c1ccc(Cl)c(Cl)c1
GI50 (DMS-114): 39.2 µM (inactive) | GI50 (HOP-18): 49.8 µM (inactive) | GI50 (DMS-273): 85.3 µM (inactive) | GI50 (KM-20L2): 72.8 µM (inactive) | GI50 (SNB-78): > 100 µM (inactive) | GI50 (XF498): > 100 µM (inactive) | GI50 (LXFL 529): 34.5 µM (inactive)

O=C1c2cccc(O)c2C(=O)c2c(O)cccc21 [DANTHRON]
GI50 (DMS-114): 38 µM (inactive) | GI50 (DMS-273): 31.6 µM (inactive) | GI50 (KM-20L2): 99.1 µM (inactive) | GI50 (SNB-78): > 100 µM (inactive) | GI50 (XF498): > 100 µM (inactive) | GI50 (LXFL 529): > 100 µM (inactive)

COc1ccc(N2C(=O)/C(=C\c3cccc(Oc4ccccc4)c3)S(=O)(=O)C2c2ccccc2)cc1 (stereo not drawn)
GI50 (T47D): 35.6 µM (inactive)

C[C@]12CC[C@@H]3c4ccc(O)cc4CC[C@H]3[C@@H]1CC[C@@H]2OC(=O)CCc1ccccc1
GI50 (T47D): 17.7 µM (inactive)

O=C1/C(=C/c2ccccc2)CN(C(=O)OCC(Cl)(Cl)Cl)C/C1=C\c1ccccc1
GI50 (DMS-114): 1.95 µM (inactive) | GI50 (HOP-18): 3.57 µM (inactive) | GI50 (DMS-273): 1.5 µM (inactive) | GI50 (KM-20L2): 2.44 µM (inactive) | GI50 (SNB-78): 1.34 µM (inactive) | GI50 (LXFL 529): 1.78 µM (inactive)

COC1CC(n2cnc3c(N)ncnc32)OC1CO (stereo not drawn)
GI50 (DMS-114): > 100 µM (inactive) | GI50 (DMS-273): > 100 µM (inactive) | GI50 (KM-20L2): > 100 µM (inactive) | GI50 (XF498): > 100 µM (inactive) | GI50 (LXFL 529): > 100 µM (inactive)

O=C1CCCC/C1=C1\C(=O)Nc2cc(F)ccc21
GI50 (DMS-114): > 100 µM (inactive) | GI50 (HOP-18): > 100 µM (inactive) | GI50 (DMS-273): > 100 µM (inactive) | GI50 (KM-20L2): > 100 µM (inactive) | GI50 (SNB-78): > 100 µM (inactive) | GI50 (XF498): > 100 µM (inactive) | GI50 (LXFL 529): > 100 µM (inactive)
